Experimental data published in ChEMBL document CHEMBL5360533, “Targeting ecto-5'-nucleotidase: A comprehensive review into small molecule inhibitors and expression modulators” (Eur J Med Chem, 2023).

What was measured:
5'-nucleotidase [1] = target: T1, 5'-nucleotidase (Mus musculus, UniProt Q61503); assay: Inhibition of mouse Ecto-5'-nucleotidase
T1 sequence (Q61503 whole entry): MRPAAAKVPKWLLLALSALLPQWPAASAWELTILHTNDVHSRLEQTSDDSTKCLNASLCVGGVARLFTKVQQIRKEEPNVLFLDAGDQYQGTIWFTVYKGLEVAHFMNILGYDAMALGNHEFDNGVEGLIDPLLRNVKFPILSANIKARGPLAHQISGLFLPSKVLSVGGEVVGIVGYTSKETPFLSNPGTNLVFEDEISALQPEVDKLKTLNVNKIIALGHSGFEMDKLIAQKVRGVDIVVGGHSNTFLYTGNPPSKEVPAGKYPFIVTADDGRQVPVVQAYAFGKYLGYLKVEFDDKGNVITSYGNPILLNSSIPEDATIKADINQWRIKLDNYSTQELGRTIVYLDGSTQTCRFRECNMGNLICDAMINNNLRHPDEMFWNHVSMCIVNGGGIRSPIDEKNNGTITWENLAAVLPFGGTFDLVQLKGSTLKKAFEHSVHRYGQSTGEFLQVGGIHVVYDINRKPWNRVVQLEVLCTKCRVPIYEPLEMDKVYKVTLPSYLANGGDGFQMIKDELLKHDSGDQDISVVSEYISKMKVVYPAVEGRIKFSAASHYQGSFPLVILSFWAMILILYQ

5'-nucleotidase [2] = target: T2, 5'-nucleotidase (Homo sapiens, UniProt P21589); assay: Inhibition of N-terminal human Ecto-5'-nucleotidase at 250 uM relative to control
5'-nucleotidase [3] = target: T2, 5'-nucleotidase; assay: Inhibition of human recombinant Ecto-5'-nucleotidase
HeLa [4] = assay: Cytotoxicity against human HeLa cells; format: functional, cell-based
5'-nucleotidase [5] = target: T2, 5'-nucleotidase; assay: Inhibition of human CD73
5'-nucleotidase [6] = target: T2, 5'-nucleotidase; assay: Inhibition of human CD73 expressed in A-375 cells; format: cell-based
[7] = target: T3, Alkaline phosphatase, tissue-nonspecific isozyme (Homo sapiens, UniProt P05186); assay: Inhibition of human TNAP
T3 sequence (P05186 whole entry): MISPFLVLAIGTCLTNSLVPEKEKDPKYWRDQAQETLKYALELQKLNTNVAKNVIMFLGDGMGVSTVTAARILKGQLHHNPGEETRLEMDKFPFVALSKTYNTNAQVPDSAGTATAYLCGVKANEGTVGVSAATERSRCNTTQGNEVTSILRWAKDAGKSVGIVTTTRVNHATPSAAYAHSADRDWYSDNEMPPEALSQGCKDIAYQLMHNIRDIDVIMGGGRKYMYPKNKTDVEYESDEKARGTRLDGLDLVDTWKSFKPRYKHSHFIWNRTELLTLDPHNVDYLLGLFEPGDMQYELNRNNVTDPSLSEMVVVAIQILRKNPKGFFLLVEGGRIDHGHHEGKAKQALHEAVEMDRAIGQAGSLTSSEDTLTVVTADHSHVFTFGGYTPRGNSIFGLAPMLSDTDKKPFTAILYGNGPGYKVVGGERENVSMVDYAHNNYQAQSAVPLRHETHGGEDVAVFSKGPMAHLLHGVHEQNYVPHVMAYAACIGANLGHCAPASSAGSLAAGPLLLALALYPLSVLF

[8] = Cytotoxicity against hamster BHK-21 cells assessed as inhibition of cell viability at 100 uM measured after 24 hrs by MTT assay; format: toxicity, cell-based, Mesocricetus auratus; conditions: read-out: INH
HeLa [9] = assay: Cytotoxicity against human HeLa cells assessed as inhibition of cell viability at 100 uM measured after 24 hrs by MTT assay; format: functional
5'-nucleotidase [10] = target: T2, 5'-nucleotidase; assay: Inhibition of human N-terminal Ecto-5'-nucleotidase
5'-nucleotidase [11] = target: T2, 5'-nucleotidase; assay: Inhibition of human recombinant CD73
5'-nucleotidase [12] = target: T2, 5'-nucleotidase; assay: Inhibition of recombinant CD73 (unknown origin)
5'-nucleotidase [13] = target: T2, 5'-nucleotidase; assay: Inhibition of human Ecto-5'-nucleotidase in rat C6 cells at 200 uM relative to control; format: cell-based
5'-nucleotidase [14] = target: T2, 5'-nucleotidase; assay: Inhibition of human Ecto-5'-nucleotidase in rat C6 cells at 100 uM relative to control; format: cell-based
5'-nucleotidase [15] = target: T2, 5'-nucleotidase; assay: Inhibition of human recombinant CD73 in MDA-MB-231 cells at 12.5 ug/ml incubated for 24 hrs by Western blot analysis relative to control; format: cell-based; conditions: dose 12.5 µg/ml
5'-nucleotidase [16] = target: T2, 5'-nucleotidase; assay: Inhibition of human recombinant CD73 in mouse 4T1 cells at 12.5 ug/ml incubated for 24 hrs by Western blot analysis relative to control; format: cell-based; conditions: dose 12.5 µg/ml
5'-nucleotidase [17] = target: T2, 5'-nucleotidase; assay: Binding affinity to human recombinant Ecto-5'-nucleotidase assessed as inhibition constant
5'-nucleotidase [18] = target: T4, 5'-nucleotidase (Rattus norvegicus, UniProt P21588); assay: Inhibition of rat Ecto-5'-nucleotidase
T4 sequence (P21588 whole entry): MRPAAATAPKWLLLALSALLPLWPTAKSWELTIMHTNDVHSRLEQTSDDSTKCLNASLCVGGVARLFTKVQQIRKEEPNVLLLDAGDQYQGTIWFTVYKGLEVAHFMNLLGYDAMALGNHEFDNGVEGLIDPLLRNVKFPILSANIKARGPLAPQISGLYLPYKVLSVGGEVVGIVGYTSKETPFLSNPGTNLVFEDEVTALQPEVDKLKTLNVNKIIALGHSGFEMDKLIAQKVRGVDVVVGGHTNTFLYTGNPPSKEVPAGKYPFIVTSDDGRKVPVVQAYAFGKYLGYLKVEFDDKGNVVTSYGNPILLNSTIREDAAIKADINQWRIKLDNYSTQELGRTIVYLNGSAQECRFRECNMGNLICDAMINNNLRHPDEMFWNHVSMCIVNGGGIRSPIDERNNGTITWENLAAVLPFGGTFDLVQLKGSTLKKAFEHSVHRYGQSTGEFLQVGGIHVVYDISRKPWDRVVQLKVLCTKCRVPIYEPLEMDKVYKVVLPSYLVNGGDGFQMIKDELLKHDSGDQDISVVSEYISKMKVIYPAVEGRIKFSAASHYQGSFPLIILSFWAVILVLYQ

Trichomonas vaginalis = assay: Antiprotozoal activity against Trichomonas vaginalis ATCC 30236 assessed as parasitic growth inhibition measured after 24 hrs by cytometry analysis; format: functional, organism-based; conditions: ATCC 30236, 24 h

T2 sequence (P21589 whole entry): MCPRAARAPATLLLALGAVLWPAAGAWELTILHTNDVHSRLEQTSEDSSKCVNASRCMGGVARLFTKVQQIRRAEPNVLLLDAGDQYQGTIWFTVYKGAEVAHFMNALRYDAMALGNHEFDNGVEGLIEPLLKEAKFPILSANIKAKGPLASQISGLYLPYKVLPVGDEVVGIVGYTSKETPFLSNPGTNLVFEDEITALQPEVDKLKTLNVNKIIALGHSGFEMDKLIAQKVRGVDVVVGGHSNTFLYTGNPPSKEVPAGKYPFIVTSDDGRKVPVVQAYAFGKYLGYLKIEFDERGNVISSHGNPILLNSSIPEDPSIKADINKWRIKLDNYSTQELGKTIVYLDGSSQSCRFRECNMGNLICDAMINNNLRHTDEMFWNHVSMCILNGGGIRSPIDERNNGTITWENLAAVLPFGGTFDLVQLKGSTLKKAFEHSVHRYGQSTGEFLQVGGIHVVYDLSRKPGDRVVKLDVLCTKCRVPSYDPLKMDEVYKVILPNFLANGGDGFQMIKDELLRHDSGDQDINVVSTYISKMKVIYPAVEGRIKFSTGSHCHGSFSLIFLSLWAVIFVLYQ

C/C(=N\NC(=O)c1ccncc1)N1N=C(c2ccc(F)cc2)CC1c1ccccc1 (stereo not given)
IC50 (5'-nucleotidase [1]): 190 nM

O=C1c2cc3c(cc2[C@@H]2[C@H](O)[C@@H](O)C=C4CCN1[C@H]42)OCO3
inhibition (5'-nucleotidase [2]): 88%

C/C(=N\NS(=O)(=O)c1ccccc1)c1cc2ccccc2oc1=O
IC50 (5'-nucleotidase [3]): 290 nM

Cc1ccc(S(=O)(=O)N/N=C/c2coc3ccc(Br)cc3c2=O)cc1
IC50 (HeLa [4]): 30200 nM

O=C(N/N=C/c1cccnc1)c1ccccc1
IC50 (5'-nucleotidase [1]): 210 nM

O=P(O)(O)COC[C@H]1O[C@@H](n2ncc3c(N4CC5(CCc6ccccc65)C4)nc(Cl)nc32)[C@H](O)[C@@H]1O
IC50 (5'-nucleotidase [5]): 0.05 nM | IC50 (5'-nucleotidase [6]): 0.051 nM

O=c1oc2ccccc2cc1-c1csc(/N=C/c2cccc([N+](=O)[O-])c2)n1
IC50 [7]: 250 nM

O=C1CNC(=S)N1/N=C/c1ccc(Br)s1
cytotoxicity at 24 h, 100 µM [8]: 4.31% | inhibition at 100 µM (HeLa [9]): 4.31%

O=C(Nc1ccncc1)c1ccc(Cl)cc1
IC50 (5'-nucleotidase [10]): 290 nM

Cc1cc2c(cc1O)c(=O)oc1cc(/C=C/c3ccc(O)c(O)c3)oc(=O)c12
IC50 (5'-nucleotidase [11]): 35100 nM

Nc1ncnc2c1ncn2[C@@H]1O[C@H](COC(C(=O)O)P(=O)(O)O)[C@@H](O)[C@H]1O (stereo not given in full)
IC50 (5'-nucleotidase [11]): 19000 nM

CC(=O)c1sc(N/N=C/c2ccc[nH]2)nc1C
IC50 (5'-nucleotidase [10]): 320 nM

COc1cc(/C=N/NC(=O)c2ccccc2)ccc1O
IC50 (5'-nucleotidase [1]): 680 nM

CCc1ccc2occ(/C=N/NS(=O)(=O)c3ccc(C)cc3)c(=O)c2c1
IC50 (HeLa [4]): 86000 nM

O=C(CSc1nnc(-c2c[nH]c3ccccc23)n1Cc1ccccc1)NO
IC50 (5'-nucleotidase [3]): 6200 nM

O=P(O)(O)CP(=O)(O)C[C@@H](O)[C@H]1O[C@@H](n2cc(-c3cc(C(F)(F)F)cc(C(F)(F)F)c3)nn2)[C@H](O)[C@@H]1O
IC50 (5'-nucleotidase [12]): 4800 nM

O=P(O)(O)CP(=O)(O)C[C@@H](O)[C@H]1O[C@@H](n2cc(-c3ccc4ccccc4c3)nn2)[C@H](O)[C@@H]1O
IC50 (5'-nucleotidase [12]): 860 nM

O=S1(=O)NC(Nc2cccc3[nH]ncc23)=Nc2c1cc(Cl)c(F)c2O
IC50 (5'-nucleotidase [11]): 15 nM

O=c1c(O)c(-c2ccc(O)c(O)c2)oc2cc(O)cc(O)c12 [QUERCETIN]
IC50 (5'-nucleotidase [10]): 45300 nM

Fc1cccc(-c2ccc3nc(C(F)(F)F)cc(-c4cccc(F)c4)c3c2)c1
IC50 (5'-nucleotidase [10]): 1190 nM

CC1=CC(=O)C2(C=C(c3cc4oc(=O)c5cc(O)c(O)cc5c4c(=O)o3)c3cc(O)c(O)cc32)O1 (stereo not given)
IC50 (5'-nucleotidase [11]): 6720 nM

COc1cc(/C=N/N2C(=O)CNC2=S)cc(OC)c1OC
cytotoxicity at 24 h, 100 µM [8]: 4.31% | inhibition at 100 µM (HeLa [9]): 4.31%

CCOC(=O)C1=C(C)NC(=S)NC1c1ccc(N(C)C)cc1 (stereo not given)
inhibition (5'-nucleotidase [13]): 48% | inhibition (5'-nucleotidase [14]): 36%

CC(=O)c1sc(N/N=C/c2ccc(N(C)C)cc2)nc1C
IC50 (5'-nucleotidase [10]): 320 nM

Fc1cccc(-c2ccc3nc(C(F)(F)F)cc(Cl)c3c2)c1
IC50 (5'-nucleotidase [10]): 1780 nM

COc1ccc(CN(C)C(=O)Nc2sc3c(c2C(=O)OC(C)(C)C)CCN(Cc2ccccc2)C3)cc1OC
IC50 (5'-nucleotidase [10]): 45800 nM

C=C[C@]1(C)C[C@@H](OC(=O)CSCCN(CC)CC)[C@]2(C)[C@H](C)CC[C@]3(CCC(=O)[C@H]32)[C@@H](C)[C@@H]1O
inhibition (5'-nucleotidase [15]): 53.9% | inhibition (5'-nucleotidase [16]): 31.4%

COc1ccc(/C=N/NC(=O)c2ccccc2)cc1
IC50 (5'-nucleotidase [1]): 13800 nM

CC(=O)c1sc(N/N=C/c2cc3ccccc3[nH]2)nc1C
IC50 (5'-nucleotidase [10]): 320 nM

O=C(N/N=C/c1ccc(Br)cc1)c1ccccc1
IC50 (5'-nucleotidase [1]): 230 nM

Cc1ccc(-n2cc(C#N)c3cc4c(=O)oc5ccc(C)cc5c4nc32)cc1
IC50 (5'-nucleotidase [10]): 160 nM

CC(=O)c1cc2ccccc2oc1=O [3-ACETYLCOUMARIN]
IC50 (5'-nucleotidase [3]): 4660 nM

Cc1ccc(C(=O)N2CCc3cc(-c4nc(NC(=O)CN5CCc6ccccc6C5)sc4C)ccc32)cc1
Ki (5'-nucleotidase [17]): 530 nM

Cc1nn(-c2ccccc2)c2nc(-c3ccccc3O)ccc12
IC50 (5'-nucleotidase [10]): 25800 nM | IC50 (5'-nucleotidase [18]): 640 nM

COc1cccc(COc2ccc(/C=N/N3C(=O)CNC3=S)cc2)c1
cytotoxicity at 24 h, 100 µM [8]: 4.31% | IC50 (5'-nucleotidase [10]): 280 nM | inhibition at 100 µM (HeLa [9]): 4.31%

O=c1oc(/C=C/c2ccc(O)c(O)c2)cc2oc3cc(O)c(O)cc3c12 [PHELLIBAUMIN A]
IC50 (5'-nucleotidase [11]): 17100 nM

FC(F)(F)c1cc(Cl)c2cc(Br)ccc2n1
IC50 (5'-nucleotidase [10]): 1720 nM

COc1c2c(cc3c1C(=O)O[C@H]1[C@@H]3[C@H]3C(=C[C@@H]1O)CCN3C)OCO2
inhibition (5'-nucleotidase [2]): 59%

C=Cn1cc[n+](Cc2ccc(O)c(C=O)c2)c1
IC50 (5'-nucleotidase [1]): 1930 nM | IC50 (5'-nucleotidase [10]): 1140 nM

COc1ccc(-c2ccc3nc(C(F)(F)F)cc(-c4ccc(OC)cc4)c3c2)cc1
IC50 (5'-nucleotidase [10]): 1130 nM

CCCC(=O)c1c(O)c2c(c(CC3=C(O)C(C)(CC=C(C)C)C(=O)C(C(=O)C(C)C)=C3O)c1O)OC(C)(C)C=C2 (stereo not given)
IC50 (Trichomonas vaginalis): 38000 nM
